Source: PubChem BioAssay AID256 (DTP/NCI, 2004)
Toxic doses and inconclusive results are not listed. The calls were made as follows: active = survival T/C of 150% or more; inactive = T/C below 125% in these data.

System: CD2F1 mice, L1210 leukemia ip, survival T/C
Assay: NCI In Vivo Anticancer Drug Screen. Data for tumor model L1210 Leukemia (intraperitoneal) in CD2F1 (CDF1) mice
Conditions: endpoint: mean survival time, higher = longer survival
Summary of the method: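 Antitumor effect is scored in animals hosting a serially transplanted tumor. Values compare compound-dosed animals against vehicle-only controls as a simple quotient.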

[1] = dose: 100.0 mg/kg/injection, schedule: Q01DX009 (ip), vehicle: saline with Tween-80
[2] = dose: 200.0 mg/kg/injection, schedule: Q01DX009 (ip), vehicle: saline with Tween-80

Measured: T/C

O=C(Nc1ccc([N+](=O)[O-])cc1)OC1CCS(=O)(=O)C1 (centres undefined)
inactive: dose: 75.0 mg/kg/injection, schedule: Q04DX003 (ip), vehicle: saline 102 % of control | dose: 150.0 mg/kg/injection, schedule: Q04DX003 (ip), vehicle: saline 98 % of control | dose: 300.0 mg/kg/injection, schedule: Q04DX003 (ip), vehicle: saline 101 % of control

Cc1ccc([N+](=O)[O-])cc1NC(=O)NNC(=O)CNC(=O)c1ccc(Cl)cc1
inactive: [1] 88 % of control | [2] 94 % of control | dose: 400.0 mg/kg/injection, schedule: Q01DX009 (ip), vehicle: saline with Tween-80 107 % of control

Cc1cc(N(CCCOS(C)(=O)=O)CCCOS(C)(=O)=O)ccc1C=Nc1ccc(-c2csc(COc3ccccc3)n2)cc1
inactive: dose: 100.0 mg/kg/injection, schedule: Q01DX001 (ip), vehicle: saline with Tween-80 89 % of control | [1] 90 % of control | dose: 200.0 mg/kg/injection, schedule: Q01DX001 (ip), vehicle: saline with Tween-80 91 % of control | [2] 86 % of control | dose: 400.0 mg/kg/injection, schedule: Q01DX001 (ip), vehicle: saline with Tween-80 88 % of control

CN(C)C(=O)c1cccc(COc2ccc(N3C(N)=NC(N)=NC3(C)C)cc2Cl)c1
inactive: dose: 0.2 mg/kg/injection, schedule: Q01DX009 (ip), vehicle: saline 100 % of control | dose: 0.4 mg/kg/injection, schedule: Q01DX009 (ip), vehicle: saline 98 % of control | dose: 1.56 mg/kg/injection, schedule: Q01DX009 (ip), vehicle: saline 98 % of control | dose: 3.13 mg/kg/injection, schedule: Q01DX009 (ip), vehicle: saline 100 % of control | dose: 6.25 mg/kg/injection, schedule: Q01DX009 (ip), vehicle: saline 98 % of control | dose: 12.5 mg/kg/injection, schedule: Q01DX009 (ip), vehicle: saline 98 % of control | dose: 65.0 mg/kg/injection, schedule: Q01DX009 (ip), vehicle: saline 97 % of control

CC[N+]1(CC)N=C([O-])N(C)C1=O
inactive: dose: 100.0 mg/kg/injection, schedule: Q01DX001 (ip), vehicle: saline 103 % of control | dose: 200.0 mg/kg/injection, schedule: Q01DX001 (ip), vehicle: saline 101 % of control | dose: 400.0 mg/kg/injection, schedule: Q01DX001 (ip), vehicle: saline 97 % of control

Oc1ccc2ccccc2c1Cl
inactive: dose: 100.0 mg/kg/injection, schedule: Q04DX003 (ip), vehicle: saline with Tween-80 104 % of control | dose: 200.0 mg/kg/injection, schedule: Q04DX003 (ip), vehicle: saline with Tween-80 112 % of control | dose: 400.0 mg/kg/injection, schedule: Q04DX003 (ip), vehicle: saline with Tween-80 108 % of control
